# Laboratory results taken from US5561140A, “Substituted alicyclic amine-containing macrocyclic immunomodulators” (Abbott Laboratories, priority 1995, dated 1996).
# Test system: human mixed lymphocyte reaction (MLR)
# Assay: human mixed lymphocyte reaction (MLR) assay of immunosuppressant activity
# Assay type: cell-based
# Conditions: Table 1
# Description: The immunosuppressant activity of the compounds of the present invention was determined using the human mixed lymphocyte reaction (MLR) assay described by Kino, T. et al. in Transplantation Proceedings XIX(5):36-39, Suppl. 6 (1987), incorporated herein by reference.
row,Compound,IC50 [nM]
1,CCOC(=O)N1CCN(C2CC[C@@H](/C=C(\C)[C@H]3OC(=O)[C@@H]4CCCCN4C(=O)C(=O)[C@]4(O)O[C@H]([C@@H](OC)C[C@@H](C)C/C(C)=C/[C@@H](CC)C(=O)C[C@H](O)[C@H]3C)[C@@H](OC)C[C@H]4C)C[C@H]2OC)CC1 (stereo partly shown) [Example 58],< 1000
2,CC[C@@H]1/C=C(\C)C[C@H](C)C[C@H](OC)[C@H]2O[C@@](O)(C(=O)C(=O)N3CCCC[C@H]3C(=O)O[C@H](/C(C)=C/[C@@H]3CCC(N4CCNCC4)[C@H](OC)C3)[C@H](C)[C@@H](O)CC1=O)[C@H](C)C[C@@H]2OC (stereo partly shown) [Example 22],< 1000
3,CC[C@@H]1/C=C(\C)C[C@H](C)C[C@H](OC)[C@H]2O[C@@](O)(C(=O)C(=O)N3CCCC[C@H]3C(=O)O[C@H](/C(C)=C/[C@@H]3CCC(N4CCN(CC(=O)N5CCCC5)CC4)[C@H](OC)C3)[C@H](C)[C@@H](O)CC1=O)[C@H](C)C[C@@H]2OC (stereo partly shown) [Example 27],< 1000
4,CC[C@@H]1/C=C(\C)C[C@H](C)C[C@H](OC)[C@H]2O[C@@](O)(C(=O)C(=O)N3CCCC[C@H]3C(=O)O[C@H](/C(C)=C/[C@@H]3CCC(N4CCN(c5ccccc5)CC4)[C@H](OC)C3)[C@H](C)[C@@H](O)CC1=O)[C@H](C)C[C@@H]2OC (stereo partly shown) [Example 9],< 1000
5,CC[C@@H]1/C=C(\C)C[C@H](C)C[C@H](OC)[C@H]2O[C@@](O)(C(=O)C(=O)N3CCCC[C@H]3C(=O)O[C@H](/C(C)=C/[C@@H]3CCC(N4CCCC(O)C4)[C@H](OC)C3)[C@H](C)[C@@H](O)CC1=O)[C@H](C)C[C@@H]2OC (stereo partly shown) [Example 108],< 1000
6,CC[C@@H]1/C=C(\C)C[C@H](C)C[C@H](OC)[C@H]2O[C@@](O)(C(=O)C(=O)N3CCCC[C@H]3C(=O)O[C@H](/C(C)=C/[C@@H]3CCC(N4CCCC(CO)C4)[C@H](OC)C3)[C@H](C)[C@@H](O)CC1=O)[C@H](C)C[C@@H]2OC (stereo partly shown) [Example 106],< 1000
7,CC[C@@H]1/C=C(\C)C[C@H](C)C[C@H](OC)[C@H]2O[C@@](O)(C(=O)C(=O)N3CCCC[C@H]3C(=O)O[C@H](/C(C)=C/[C@@H]3CCC(N4CCN(c5ccc(C(C)=O)cc5)CC4)[C@H](OC)C3)[C@H](C)[C@@H](O)CC1=O)[C@H](C)C[C@@H]2OC (stereo partly shown) [Example 39],< 1000
8,CC[C@@H]1/C=C(\C)C[C@H](C)C[C@H](OC)[C@H]2O[C@@](O)(C(=O)C(=O)N3CCCC[C@H]3C(=O)O[C@H](/C(C)=C/[C@@H]3CCC(N4CCC5(CC4)OCCO5)[C@H](OC)C3)[C@H](C)[C@@H](O)CC1=O)[C@H](C)C[C@@H]2OC (stereo partly shown) [Example 16],< 1000
9,CCC1C=C(C)CC(C)CC(OC)C2OC(O)(C(=O)C(=O)N3CCCCC3C(=O)OC(C(C)=CC3CCC(N4CCN(Cc5ccc([N+](=O)[O-])cc5)CC4)C(OC)C3)C(C)C(O)CC1=O)C(C)CC2OC (stereo not shown) [Example 12],< 1000
10,CC[C@@H]1/C=C(\C)C[C@H](C)C[C@H](OC)[C@H]2O[C@@](O)(C(=O)C(=O)N3CCCC[C@H]3C(=O)O[C@H](/C(C)=C/[C@@H]3CCC(N4CCCCC4CO)[C@H](OC)C3)[C@H](C)[C@@H](O)CC1=O)[C@H](C)C[C@@H]2OC (stereo partly shown) [Example 105],< 1000
11,CC[C@@H]1/C=C(\C)C[C@H](C)C[C@H](OC)[C@H]2O[C@@](O)(C(=O)C(=O)N3CCCC[C@H]3C(=O)O[C@H](/C(C)=C/[C@@H]3CCC(N4CCN(CC(=O)NC(C)C)CC4)[C@H](OC)C3)[C@H](C)[C@@H](O)CC1=O)[C@H](C)C[C@@H]2OC (stereo partly shown) [Example 62],< 1000
12,CC[C@@H]1/C=C(\C)C[C@H](C)C[C@H](OC)[C@H]2O[C@@](O)(C(=O)C(=O)N3CCCC[C@H]3C(=O)O[C@H](/C(C)=C/[C@@H]3CCC(N4CCN(C=O)CC4)[C@H](OC)C3)[C@H](C)[C@@H](O)CC1=O)[C@H](C)C[C@@H]2OC (stereo partly shown) [Example 15],< 1000
13,CC[C@@H]1/C=C(\C)C[C@H](C)C[C@H](OC)[C@H]2O[C@@](O)(C(=O)C(=O)N3CCCC[C@H]3C(=O)O[C@H](/C(C)=C/[C@@H]3CCC(N4CCN(CC(=O)N5CCOCC5)CC4)[C@H](OC)C3)[C@H](C)[C@@H](O)CC1=O)[C@H](C)C[C@@H]2OC (stereo partly shown) [Example 28],< 1000
14,CC[C@@H]1/C=C(\C)C[C@H](C)C[C@H](OC)[C@H]2O[C@@](O)(C(=O)C(=O)N3CCCC[C@H]3C(=O)O[C@H](/C(C)=C/[C@@H]3CCC(N4CCN(c5ncccn5)CC4)[C@H](OC)C3)[C@H](C)[C@@H](O)CC1=O)[C@H](C)C[C@@H]2OC (stereo partly shown) [Example 21],< 1000
15,CC[C@@H]1/C=C(\C)C[C@H](C)C[C@H](OC)[C@H]2O[C@@](O)(C(=O)C(=O)N3CCCC[C@H]3C(=O)O[C@H](/C(C)=C/[C@@H]3CCC(N4CCN(CCOCCO)CC4)[C@H](OC)C3)[C@H](C)[C@@H](O)CC1=O)[C@H](C)C[C@@H]2OC (stereo partly shown) [Example 19],< 1000
16,CCC1C=C(C)CC(C)CC(OC)C2OC(O)(C(=O)C(=O)N3CCCCC3C(=O)OC(C(C)=CC3CCC(N4CCN(Cc5ccc6ccccc6c5)CC4)C(OC)C3)C(C)C(O)CC1=O)C(C)CC2OC (stereo not shown) [Example 13],< 1000

row,Compound,IC50 [nM]
1,CC[C@@H]1/C=C(\C)C[C@H](C)C[C@H](OC)[C@H]2O[C@@](O)(C(=O)C(=O)N3CCCC[C@H]3C(=O)O[C@H](/C(C)=C/[C@@H]3CCC(N4CCN(C)CC4)[C@H](OC)C3)[C@H](C)[C@@H](O)CC1=O)[C@H](C)C[C@@H]2OC (stereo partly shown) [Example 5],< 1000
2,CC[C@@H]1/C=C(\C)C[C@H](C)C[C@H](OC)[C@H]2O[C@@](O)(C(=O)C(=O)N3CCCC[C@H]3C(=O)O[C@H](/C(C)=C/[C@@H]3CCC(N4CCOCC4)[C@H](OC)C3)[C@H](C)[C@@H](O)CC1=O)[C@H](C)C[C@@H]2OC (stereo partly shown) [Example 18],< 1000
3,CC[C@@H]1/C=C(\C)C[C@H](C)C[C@H](OC)[C@H]2O[C@@](O)(C(=O)C(=O)N3CCCC[C@H]3C(=O)O[C@H](/C(C)=C/[C@@H]3CCC(N4CCN(c5ccccn5)CC4)[C@H](OC)C3)[C@H](C)[C@@H](O)CC1=O)[C@H](C)C[C@@H]2OC (stereo partly shown) [Example 20],< 1000
4,"CC[C@@H]1/C=C(\C)C[C@H](C)C[C@H](OC)[C@H]2O[C@@](O)(C(=O)C(=O)N3CCCC[C@H]3C(=O)O[C@H](/C(C)=C/[C@@H]3CCC(N4CCC[C@H]4CO)[C@H](OC)C3)[C@H](C)[C@@H](O)CC1=O)[C@H](C)C[C@@H]2OC (single isomer, unassigned) [Example 109]",< 1000
5,CC[C@@H]1/C=C(\C)C[C@H](C)C[C@H](OC)[C@H]2O[C@@](O)(C(=O)C(=O)N3CCCC[C@H]3C(=O)O[C@H](/C(C)=C/[C@@H]3CCC(N4CCC(N5CCCC5)CC4)[C@H](OC)C3)[C@H](C)[C@@H](O)CC1=O)[C@H](C)C[C@@H]2OC (stereo partly shown) [Example 44],< 1000
6,"CC[C@@H]1/C=C(\C)C[C@H](C)C[C@H](OC)[C@H]2O[C@@](O)(C(=O)C(=O)N3CCCC[C@H]3C(=O)O[C@H](/C(C)=C/[C@@H]3CCC(N4CCC[C@@H]4CO)[C@H](OC)C3)[C@H](C)[C@@H](O)CC1=O)[C@H](C)C[C@@H]2OC (single isomer, unassigned) [Example 76]",< 1000
7,CC[C@@H]1/C=C(\C)C[C@H](C)C[C@H](OC)[C@H]2O[C@@](O)(C(=O)C(=O)N3CCCC[C@H]3C(=O)O[C@H](/C(C)=C/[C@@H]3CCC(N4CCN(CCO)CC4)[C@H](OC)C3)[C@H](C)[C@@H](O)CC1=O)[C@H](C)C[C@@H]2OC (stereo partly shown) [Example 17],< 1000
8,CC[C@@H]1/C=C(\C)C[C@H](C)C[C@H](OC)[C@H]2O[C@@](O)(C(=O)C(=O)N3CCCC[C@H]3C(=O)O[C@H](/C(C)=C/[C@@H]3CCC(N4CCCCC4CCO)[C@H](OC)C3)[C@H](C)[C@@H](O)CC1=O)[C@H](C)C[C@@H]2OC (stereo partly shown) [Example 107],< 1000
9,CC[C@@H]1/C=C(\C)C[C@H](C)C[C@H](OC)[C@H]2O[C@@](O)(C(=O)C(=O)N3CCCC[C@H]3C(=O)O[C@H](/C(C)=C/[C@@H]3CCC(N4CCN(C(C)=O)CC4)[C@H](OC)C3)[C@H](C)[C@@H](O)CC1=O)[C@H](C)C[C@@H]2OC (stereo partly shown) [Example 61],< 1000
10,CC[C@@H]1/C=C(\C)C[C@H](C)C[C@H](OC)[C@H]2O[C@@](O)(C(=O)C(=O)N3CCCC[C@H]3C(=O)O[C@H](/C(C)=C/[C@@H]3CCC(N4CCN(C5CCCC5)CC4)[C@H](OC)C3)[C@H](C)[C@@H](O)CC1=O)[C@H](C)C[C@@H]2OC (stereo partly shown) [Example 31],< 1000
11,CC[C@@H]1/C=C(\C)C[C@H](C)C[C@H](OC)[C@H]2O[C@@](O)(C(=O)C(=O)N3CCCC[C@H]3C(=O)O[C@H](/C(C)=C/[C@@H]3CCC(N4CCCCC4)[C@H](OC)C3)[C@H](C)[C@@H](O)CC1=O)[C@H](C)C[C@@H]2OC (stereo partly shown) [Example 14],< 1000
12,CC[C@@H]1/C=C(\C)C[C@H](C)C[C@H](OC)[C@H]2O[C@@](O)(C(=O)C(=O)N3CCCC[C@H]3C(=O)O[C@H](/C(C)=C/[C@@H]3CCC(N4CCC(O)CC4)[C@H](OC)C3)[C@H](C)[C@@H](O)CC1=O)[C@H](C)C[C@@H]2OC (stereo partly shown) [Example 67],< 1000
13,CC[C@@H]1/C=C(\C)C[C@H](C)C[C@H](OC)[C@H]2O[C@@](O)(C(=O)C(=O)N3CCCC[C@H]3C(=O)O[C@H](/C(C)=C/[C@@H]3CCC(N4CCN(Cc5ccccc5)CC4)[C@H](OC)C3)[C@H](C)[C@@H](O)CC1=O)[C@H](C)C[C@@H]2OC (stereo partly shown) [Example 7],< 1000
14,CC[C@@H]1/C=C(\C)C[C@H](C)C[C@H](OC)[C@H]2O[C@@](O)(C(=O)C(=O)N3CCCC[C@H]3C(=O)O[C@H](/C(C)=C/[C@@H]3CCC(N4CCN(C(=O)OC(C)(C)C)CC4)[C@H](OC)C3)[C@H](C)[C@@H](O)CC1=O)[C@H](C)C[C@@H]2OC (stereo partly shown) [Example 11],< 1000
15,CCC1C=C(C)CC(C)CC(OC)C2OC(O)(C(=O)C(=O)N3CCCCC3C(=O)OC(C(C)=CC3CCC(N4CCN(Cc5ccc6c(c5)OCO6)CC4)C(OC)C3)C(C)C(O)CC1=O)C(C)CC2OC (stereo not shown) [Example 38],< 1000
